In one test the test system is XF 498 CNS. Nature of the test: NCI-60 cell line screen, 48 h.
A further test deals with RXF-631 renal. Put plainly: NCI-60 cell line screen, 48 h.

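The compound was tested at five concentrations on cells cultured in 96-well plates, with a 48-hour exposure period. TGI: total growth inhibition.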

The compound `CCC(=O)NCC1(c2c[nH]c3ccccc23)SCCS1` had a TGI with XF 498 CNS of over 100 µM.
Same read-out and setting: the figure for `O=C(Cc1ccccc1)NN1C(=O)C(Cl)C1c1cc(Br)cc(Br)c1O` (centres undefined) is 79.3 µM; for `CC1=CC(=O)c2cccc(O)c2C1=O` it is 3.2 µM.
On the same count and under the same terms, the figure for `CC(=O)C1CC2(c3ccccc3)C(=O)c3ccccc3N2O1` (centres undefined) is over 100 µM; for `CCCN(CCC)C(=O)Cc1c2n(c3ccccc13)CCCc1ccccc1-2` it is 28.8 µM.
The compound `COc1ccc(OC)c2c1C(=O)C(Cl)=C(Cl)C2=O` yielded a TGI in the test with XF 498 CNS of 3.67 µM.
Take `COc1cc([C@@H]2c3cc4c(cc3[C@@H](NC(=O)c3ccc(C(C)=O)cc3)C3COC(=O)[C@@H]32)OCO4)cc(OC)c1O` (some centres undefined): the TGI with XF 498 CNS turned out to be 5.7 µM; in the test with RXF-631 renal, 10.6 µM.
Regarding `O=S(=O)(O)c1cc(O)c2c(O)c(N=Nc3ccc(/C=C/c4ccc(N=Nc5c(S(=O)(=O)O)cc6cc(S(=O)(=O)O)cc(O)c6c5O)cc4S(=O)(=O)O)c(S(=O)(=O)O)c3)c(S(=O)(=O)O)cc2c1`, the TGI with XF 498 CNS was over 100 µM.
On the same count and under the same terms, the result for `C/C(=N\O)C(CN(C)C)C(c1ccccc1)c1c(O)c2ccccc2oc1=O` (centres undefined) reads over 100 µM; that for `CCN(CC)CCNC(=O)c1ccccc1Nc1c(Cl)cccc1Cl`, 16.5 µM.
For the compound `CCOP(=O)(C/C(=N/NC(C)(C)C)C(=O)Nc1nc2ccc(C)cc2s1)OCC`, the TGI in the test on XF 498 CNS and in the test with RXF-631 renal was over 100 µM throughout.
Turning to `CCCC/C=C1\CCC(CN2CCOCC2)C1=O` (centres undefined), the values for the TGI with XF 498 CNS and with RXF-631 renal were 3.15 µM and 29.2 µM, respectively.
`C/C(CC(=O)Nc1ccc(C)cc1)=N\NC(N)=S` came in with a TGI with XF 498 CNS of over 100 µM.
On to `CC1(Br)C(=O)NC(=O)N([C@H]2C[C@H](O)[C@@H](CO)O2)C1N=[N+]=[N-]` (some centres undefined), for which the TGI in the test on XF 498 CNS and with RXF-631 renal was over 100 µM throughout.
In the test with RXF-631 renal, `CN1C(=O)c2cccc3c([N+](=O)[O-])ccc(c23)C1=O` returned a TGI of 17.6 µM.

For the origin of these results see PubChem BioAssay (NCI).
